From ChEMBL document CHEMBL1139473, “Design, synthesis, and biological evaluation of dual binding site acetylcholinesterase inhibitors: new disease-modifying agents for Alzheimer's disease” (J Med Chem, 2005)

Tests used:
[1] = target: Cholinesterase (Homo sapiens, UniProt P06276)
Description: Inhibition of human serum BChE

[2] = target: T1, Acetylcholinesterase (Bos taurus, UniProt P23795); experiment: biochemical
T1 sequence (P23795 whole entry): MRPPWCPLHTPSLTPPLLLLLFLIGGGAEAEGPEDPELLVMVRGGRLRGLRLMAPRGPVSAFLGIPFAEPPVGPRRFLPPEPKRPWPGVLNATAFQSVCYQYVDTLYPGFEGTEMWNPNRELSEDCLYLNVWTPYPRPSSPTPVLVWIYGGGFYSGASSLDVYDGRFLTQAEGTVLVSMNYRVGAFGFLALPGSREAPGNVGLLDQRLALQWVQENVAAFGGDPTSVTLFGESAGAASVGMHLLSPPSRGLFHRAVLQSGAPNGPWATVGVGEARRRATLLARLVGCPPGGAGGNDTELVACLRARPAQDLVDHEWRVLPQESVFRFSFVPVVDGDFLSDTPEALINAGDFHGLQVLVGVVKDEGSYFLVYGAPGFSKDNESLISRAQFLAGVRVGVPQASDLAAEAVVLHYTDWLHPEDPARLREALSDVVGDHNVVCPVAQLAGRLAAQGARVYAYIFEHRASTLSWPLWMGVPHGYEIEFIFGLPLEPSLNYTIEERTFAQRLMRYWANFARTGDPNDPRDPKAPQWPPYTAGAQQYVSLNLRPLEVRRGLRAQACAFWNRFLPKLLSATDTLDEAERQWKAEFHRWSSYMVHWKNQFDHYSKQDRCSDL
Description: Inhibition of AchE in bovine erythrocytes

[3] = target: T2, Acetylcholinesterase (Homo sapiens, UniProt P22303)
[4] = target: Cholinesterases; ACHE & BCHE (Homo sapiens) (UniProt P06276+P22303); experiment: Selectivity for human BChE over human AChE; assay type: protein assay
[5] = target: T2, Acetylcholinesterase; experiment: Inhibition of human AChE-induced beta amyloid peptide(1-40) aggregation at 100 uM by thioflavin T-based fluorometric assay; assay type: functional
[6] = target: T2, Acetylcholinesterase; remark: listed apart in the source
Description: Inhibition of human brain AchE

[7] = tested on: SH-SY5Y; experiment: Cytotoxicity against human SHSY5Y cells at 10 uM after 48 hrs; assay type: cell-based

Sequence of Cholinesterases; ACHE & BCHE (Homo sapiens) (P06276 whole entry, looked up): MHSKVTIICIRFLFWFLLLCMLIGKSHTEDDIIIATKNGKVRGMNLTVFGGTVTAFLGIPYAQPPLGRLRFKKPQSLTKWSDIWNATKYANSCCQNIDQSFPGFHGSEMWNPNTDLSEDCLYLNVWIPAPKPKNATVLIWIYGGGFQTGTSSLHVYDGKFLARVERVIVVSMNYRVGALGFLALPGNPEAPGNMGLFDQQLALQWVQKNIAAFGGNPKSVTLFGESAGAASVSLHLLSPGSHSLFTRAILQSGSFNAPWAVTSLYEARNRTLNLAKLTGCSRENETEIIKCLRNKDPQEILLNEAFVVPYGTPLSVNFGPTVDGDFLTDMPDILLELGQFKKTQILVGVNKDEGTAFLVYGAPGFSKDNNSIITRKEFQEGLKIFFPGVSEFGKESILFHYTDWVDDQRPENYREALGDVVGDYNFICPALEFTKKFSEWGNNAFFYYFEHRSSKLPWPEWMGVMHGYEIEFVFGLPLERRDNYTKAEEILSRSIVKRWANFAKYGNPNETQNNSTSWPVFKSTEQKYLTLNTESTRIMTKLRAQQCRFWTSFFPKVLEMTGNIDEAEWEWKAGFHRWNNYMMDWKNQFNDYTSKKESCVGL
Sequence of Cholinesterases; ACHE & BCHE (Homo sapiens) (P22303 whole entry, looked up): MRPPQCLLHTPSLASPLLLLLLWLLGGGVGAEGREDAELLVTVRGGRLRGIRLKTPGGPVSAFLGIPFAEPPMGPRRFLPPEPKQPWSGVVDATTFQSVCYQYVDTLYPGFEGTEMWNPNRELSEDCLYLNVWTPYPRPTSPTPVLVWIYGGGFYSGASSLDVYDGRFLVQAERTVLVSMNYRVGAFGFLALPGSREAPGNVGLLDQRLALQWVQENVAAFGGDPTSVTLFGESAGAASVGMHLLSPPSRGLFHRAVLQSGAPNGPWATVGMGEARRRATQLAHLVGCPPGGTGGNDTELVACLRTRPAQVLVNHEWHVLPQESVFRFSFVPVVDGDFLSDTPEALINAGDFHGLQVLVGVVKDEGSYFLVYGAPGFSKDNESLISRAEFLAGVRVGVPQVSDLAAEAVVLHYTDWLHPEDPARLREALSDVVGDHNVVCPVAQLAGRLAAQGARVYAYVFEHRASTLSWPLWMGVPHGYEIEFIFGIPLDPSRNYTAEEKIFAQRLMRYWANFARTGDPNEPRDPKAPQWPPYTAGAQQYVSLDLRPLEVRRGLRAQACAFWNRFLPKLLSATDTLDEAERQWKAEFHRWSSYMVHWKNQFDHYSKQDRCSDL
Sequence of Cholinesterase (P06276 whole entry): as the sequence (P06276 whole entry, looked up) above
T2 sequence (P22303 whole entry): as the sequence (P22303 whole entry, looked up) above

SMILES	IC50 [1] [nM]	IC50 [2] [nM]	IC50 [3] [nM]	Ratio IC50 [4]	inhibition [5] [%]	IC50 [6] [nM]	Ki [6] [nM]	Activity [7]
O=C(CCOc1c[nH]c2ccccc12)NCCCCCCCNc1c2c(nc3cc(Cl)ccc13)CCCC2	59	3	–	–	–	–	–	–
O=C(Cc1c[nH]c2ccccc12)NCCCCCCCNc1c2c(nc3cc(Cl)ccc13)CCCC2	11.7	0.2	7000	0.01	84	0.12	0.015	–
O=C(/C=C/c1c[nH]c2ccccc12)NCCCCCCNc1c2c(nc3cc(Cl)ccc13)CCCC2	77	18	–	–	–	–	–	–
O=C(CCc1c[nH]c2ccccc12)NCCCCCCNc1c2c(nc3cc(Cl)ccc13)CCCC2	–	–	2000	0.02	98	0.07	0.014	–
O=C(CCc1c[nH]c2ccccc12)NCCCCCCCCCc1c2c(nc3cc(Cl)ccc13)CCCC2	9.6	–	–	–	–	–	–	–
O=C(CCOc1c[nH]c2ccccc12)NCCCCCNc1c2c(nc3cc(Cl)ccc13)CCCC2	136	1.5	–	–	–	–	–	–
O=C(CCCc1c[nH]c2ccccc12)NCCCCCNc1c2c(nc3cc(Cl)ccc13)CCCC2	3.2	0.3	2000	0.04	99	0.13	0.0017	–
N#Cc1ccc2[nH]cc(CCC(=O)NCCCCCCNc3c4c(nc5cc(Cl)ccc35)CCCC4)c2c1	11.7	0.7	–	–	–	–	–	–
O=C(CCc1c[nH]c2ccccc12)NCCCCCNc1c2c(nc3cc(Cl)ccc13)CCCC2	16	–	–	–	–	–	–	–
O=C(CCc1c[nH]c2ccccc12)NCCCCCCCNc1c2c(nc3cc(Cl)ccc13)CCCC2	–	–	6000	0.22	96	0.02	0.009	Active
O=C(CCCc1c[nH]c2ccccc12)NCCCCCCNc1c2c(nc3cc(Cl)ccc13)CCCC2	–	0.5	–	–	–	–	–	–
O=C(Cc1c[nH]c2ccc(Br)cc12)NCCCCCCCNc1c2c(nc3cc(Cl)ccc13)CCCC2	–	0.6	15000	0.14	82	0.23	0.02	–
O=C(CCc1c[nH]c2ccccc12)NCCCCCCCCNc1c2c(nc3cc(Cl)ccc13)CCCC2	–	–	–	–	–	–	–	Active
O=C(CCc1c[nH]c2ccccc12)NCCCCCCCCCCNc1c2c(nc3ccccc13)CCCC2	54	21.9	–	–	–	–	–	–
Cn1cc(C(=O)NCCCCCCCNc2c3c(nc4cc(Cl)ccc24)CCCC3)c2ccccc21	206	10.9	–	–	–	–	–	–
O=C(CCOc1c[nH]c2ccccc12)NCCCCCCNc1c2c(nc3cc(Cl)ccc13)CCCC2	60	0.7	–	–	–	–	–	–
CN(CCCNC(=O)CCc1c[nH]c2ccccc12)CCCNc1c2c(nc3cc(Cl)ccc13)CCCC2	21.4	–	–	–	–	–	–	Active
